Experimental data: PMC5688144, “Assay interference and off-target liabilities of reported histone acetyltransferase inhibitors” (Nature Communications, 2017)
Read-outs that look alike come from different tables or passages of the source.

Legend:
[1] = test system: CBP; conditions: cited from earlier work; for IC50: original report, 22 (Supplementary References)
[2] = UPLC-MS gross compound stability in assay buffer; conditions: 25 mM sodium phosphate, pH 7.0, 30 °C, no GSH or CoA
Description: Select compounds were incubated up to 24 h for additional stability analyses. Chromatograms and mass spectra were qualitatively analyzed for the formation of new peaks and/or loss of parent peaks.

[3] = test system: GCN5; conditions: cited from earlier work
[4] = Fluorescence quenching counter-screen; format: physicochemical; conditions: 10 μM fluorophore; 32 nM-100 μM compound
Description: Selected test compounds were assessed for fluorescence quenching using adaptions of previously published procedures[9],[24]. Briefly, test compounds and individual fluorophore standards were incubated together. The fluorescence intensity of these mixtures was compared to the fluorescence intensity of the same fluorophore standards minus test compounds. Each microplate contained positive control columns (DMSO plus fixed concentration of a single fluorophore), negative control columns (DMSO), and experimental wells (test compounds plus fixed concentration of a single fluorophore). […] Final concentration of DMSO was constant at 2.0% (v/v). […] All measurements were performed in ALARM NMR buffer (25 mM sodium phosphate, pH 7.0) at 25 °C. Aliquots of 20 μL buffer were dispensed into microplate wells via ThermoFisher Multidrop dispenser. Microplates were shaken for 1 min on a plate shaker, centrifuged briefly for 1 min at 1000×g, then allowed to incubate at RT for 10 min before measuring fluorescence intensity on a SpectraMax M3 plate reader under reduced lighting. Instrument settings for each fluorophore were unchanged from the aforementioned autofluorescence studies.

[5] = test system: Tip60; conditions: cited from earlier work; for IC50: original report, 24 (Supplementary References)
[6] = Absorbance spectra; format: physicochemical; conditions: for Absorption max (nm) / Absorbance counter-screen: 25 mM sodium phosphate, pH 7.0; for Absorbance counter-screen: 300-750 nm; for Molar absorptivity: at absorption max
Description: Selected test compounds were assessed for absorption between 300 and 750 nm. Most compound absorption spectra were obtained at 100, 50, and 10 μM final compound concentrations in ALARM NMR buffer (25 mM sodium phosphate, pH 7.0). Final concentration of DMSO was constant at 2.0% (v/v). Compounds were allowed to incubate at RT in buffer for 10 min in UV-transparent polystyrene 384-well plates. Absorbance spectra were then obtained on a SpectraMax M3 or BMG Labtech CLARIOstar microplate reader at 25 °C. Significant absorbance was defined as molar absorptivity constants greater than 2000 M^−1 cm^−1 at wavelengths greater than 300 nm.

[7] = test system: p300/CBP; conditions: cited from earlier work
[8] = molecular target: T1, PCAF (Homo sapiens, UniProt Q92831); conditions: cited from earlier work
T1 construct: Reaction Biology Corporation (assays run by this contract lab)

[9] = @ 100 µM, 20 (Supplementary References)
[10] = original report, 22 (Supplementary References)
[11] = @ 25 µM, ref 13 (Supplementary References)
[12] = original report, 27 (Supplementary References)
[13] = @ 200 µM, ref 19 (Supplementary References)
[14] = @ 100 µM, ref 25 (Supplementary References)

T1 sequence (Q92831 whole entry, species assumed): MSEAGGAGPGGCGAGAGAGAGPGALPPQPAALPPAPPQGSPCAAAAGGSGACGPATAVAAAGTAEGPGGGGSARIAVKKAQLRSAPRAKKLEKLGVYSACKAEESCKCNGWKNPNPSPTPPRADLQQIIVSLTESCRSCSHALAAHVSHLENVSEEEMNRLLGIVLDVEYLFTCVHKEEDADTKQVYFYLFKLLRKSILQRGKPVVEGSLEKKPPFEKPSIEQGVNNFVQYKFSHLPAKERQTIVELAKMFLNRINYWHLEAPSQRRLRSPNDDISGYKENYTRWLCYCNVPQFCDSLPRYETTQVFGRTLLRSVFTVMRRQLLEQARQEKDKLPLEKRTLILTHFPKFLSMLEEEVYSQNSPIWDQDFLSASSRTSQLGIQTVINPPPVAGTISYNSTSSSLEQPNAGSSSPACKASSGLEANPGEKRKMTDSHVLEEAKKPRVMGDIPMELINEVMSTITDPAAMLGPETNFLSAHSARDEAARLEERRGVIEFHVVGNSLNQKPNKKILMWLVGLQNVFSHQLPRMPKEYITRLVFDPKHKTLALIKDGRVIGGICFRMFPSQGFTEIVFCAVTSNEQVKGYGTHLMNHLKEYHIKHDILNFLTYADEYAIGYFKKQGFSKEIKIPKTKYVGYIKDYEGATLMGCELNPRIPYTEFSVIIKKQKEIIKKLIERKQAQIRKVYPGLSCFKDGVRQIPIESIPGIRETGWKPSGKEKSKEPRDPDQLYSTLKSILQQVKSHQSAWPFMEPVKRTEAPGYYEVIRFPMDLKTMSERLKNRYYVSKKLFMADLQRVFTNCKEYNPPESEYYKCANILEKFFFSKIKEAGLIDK

## COc1ccc(S(=O)(=O)ON=C2C=C(C)C(=O)C(C)=C2)cc1 [Compound 5, L002]
[1]; @ 100 µM, ref 9 (Supplementary References)
  % inhibition, CBP: 32%
[2]
  UPLC-MS buffer stability counter-screen: Gross degradation observed; loss of parent peak
[3]; HotSpot assay, ref 9 (Supplementary References)
  IC50: 33.9 µM
[4]
  Quenching counter-screen: Negative
[5]; [9]
  % inhibition, Tip60: 2%
[6]
  Absorption max (nm): 290 nm
  Absorbance counter-screen: Negative

## C=C1C(=O)O[C@H](CCC)[C@H]1C(=O)O [Compound 6, MB-3]
[1]
  IC50: 500 µM
[2]
  UPLC-MS buffer stability counter-screen: Grossly stable
[3]; [10]
  IC50: 100 µM
[4]
  Quenching counter-screen: Flagged (Significant fluorescence quenching was defined as signal reduction greater than 25% of the corresponding fluorophore signal at any test compound concentration)
[6]
  Absorption max (nm): Nominal
  Absorbance counter-screen: Negative

## Clc1ccc(-c2csc(NN=C3CCCC3)n2)cc1 [Compound 7, CPTH2]
[2]
  UPLC-MS buffer stability counter-screen: Gross degradation observed; loss of parent peak, appearance of new peaks
[3]; [10]
  IC50: ~500 µM
[4]
  Quenching counter-screen: Flagged (Significant fluorescence quenching was defined as signal reduction greater than 25% of the corresponding fluorophore signal at any test compound concentration)
[6]
  Absorption max (nm): 285 nm
  Absorbance counter-screen: Negative

## CCCCCCCCCCCC1=C(O)C(=O)C=C(O)C1=O [Compound 9, Embelin]
[7]; [11]
  % inhibition, p300/CBP: 25%
[2]
  UPLC-MS buffer stability counter-screen: Grossly stable
[4]
  Quenching counter-screen: Flagged (Significant fluorescence quenching was defined as signal reduction greater than 25% of the corresponding fluorophore signal at any test compound concentration)
[5]; [11]
  % inhibition, Tip60: 25%
[6]
  Absorption max (nm): 315 nm
  Absorbance counter-screen: Flagged (Significant absorbance was defined as molar absorptivity constants greater than 2000 M^−1 cm^−1 at wavelengths greater than 300 nm)
  Molar absorptivity: 21000 M⁻¹ cm⁻¹

## O=C(O[C@@H]1Cc2c(O)cc(O)cc2O[C@@H]1c1cc(O)c(O)c(O)c1)c1cc(O)c(O)c(O)c1 [Compound 10, (-)-Epigallocatechin gallate]
[1]
  IC50: 50 µM
[2]
  UPLC-MS buffer stability counter-screen: Gross degradation observed; loss of parent peak, appearance of new peaks
[4]
  Quenching counter-screen: Flagged (Significant fluorescence quenching was defined as signal reduction greater than 25% of the corresponding fluorophore signal at any test compound concentration)
[5]
  IC50: 70 µM
[6]
  Absorption max (nm): 290 nm
  Absorbance counter-screen: Negative

## COc1cc(/C=C/C(=O)CC(=O)/C=C/c2ccc(O)c(OC)c2)ccc1O [Compound 11, Curcumin]
[8]; @ 100 µM, ref 15 (Supplementary References)
  % inhibition, PCAF: < 10%
[2]
  UPLC-MS buffer stability counter-screen: Gross degradation observed; loss of parent peak, appearance of new peaks
[4]
  Quenching counter-screen: Flagged (Significant fluorescence quenching was defined as signal reduction greater than 25% of the corresponding fluorophore signal at any test compound concentration)
[6]
  Absorption max (nm): 425 nm
  Absorbance counter-screen: Flagged (Significant absorbance was defined as molar absorptivity constants greater than 2000 M^−1 cm^−1 at wavelengths greater than 300 nm)
  Molar absorptivity: 20000 M⁻¹ cm⁻¹

## CCCCCCCCCCCCCCCc1cccc(O)c1C(=O)O [Compound 14, Anacardic acid]
[7]; [12]
  IC50: 8.5 µM
[4]
  Quenching counter-screen: Flagged (Significant fluorescence quenching was defined as signal reduction greater than 25% of the corresponding fluorophore signal at any test compound concentration)
[6]
  Absorption max (nm): 305 nm
  Absorbance counter-screen: Negative

## CCCCCCCc1ccc(CCc2cccc(O)c2C(=O)O)cc1 [Compound 15, MG 149]
[8]; [13]
  % inhibition, PCAF: 3%
[7]; [13]
  % inhibition, p300/CBP: 30%
[4]
  Quenching counter-screen: Flagged (Significant fluorescence quenching was defined as signal reduction greater than 25% of the corresponding fluorophore signal at any test compound concentration)
[5]
  IC50: 74 µM
[6]
  Absorption max (nm): 300 nm
  Absorbance counter-screen: Negative

## Cc1cc2c(C(C)C)c(O)c(O)c(C=O)c2c(O)c1-c1c(C)cc2c(C(C)C)c(O)c(O)c(C=O)c2c1O [Compound 16, Gossypol]
[1]
  IC50: ~25 µM
[8]; [12]
  IC50: ~50 µM
[4]
  Quenching counter-screen: Flagged (Significant fluorescence quenching was defined as signal reduction greater than 25% of the corresponding fluorophore signal at any test compound concentration)
[5]; [9]
  % inhibition, Tip60: < 10%
[6]
  Absorption max (nm): 385 nm
  Absorbance counter-screen: Flagged (Significant absorbance was defined as molar absorptivity constants greater than 2000 M^−1 cm^−1 at wavelengths greater than 300 nm)
  Molar absorptivity: 22000 M⁻¹ cm⁻¹

## COc1cc(/C=C/c2cc(/C=C/c3ccc(O)c(OC)c3)n(-c3ccc(C(=O)[O-])cc3)n2)ccc1O.[Na+] [Compound 17, CTK7A]
[3]; @ 40 µM, ref 21 (Supplementary References)
  % inhibition, GCN5: 40%
[4]
  Quenching counter-screen: Flagged (Significant fluorescence quenching was defined as signal reduction greater than 25% of the corresponding fluorophore signal at any test compound concentration)
[6]
  Absorption max (nm): 325 nm
  Absorbance counter-screen: Flagged (Significant absorbance was defined as molar absorptivity constants greater than 2000 M^−1 cm^−1 at wavelengths greater than 300 nm)
  Molar absorptivity: 30000 M⁻¹ cm⁻¹

## Cl.Cl.O=C(O)Cn1nnc(-c2ccc(CN(CCCCOc3ccc(CN4CCCC4)cc3)CCc3ccccc3)cc2)n1 [Compound 20, TH1834]
[4]
  Quenching counter-screen: Flagged (Significant fluorescence quenching was defined as signal reduction greater than 25% of the corresponding fluorophore signal at any test compound concentration)
[5]
  IC50: ~500 µM
[6]
  Absorption max (nm): Nominal
  Absorbance counter-screen: Negative

## CCCC1(c2ccccc2)NC(=O)N(CC(=O)N(C)Cc2c(F)cccc2Cl)C1=O (stereo not drawn) [Compound 21, N-[(2-chloro-6-fluorophenyl)methyl]-2-(2,5-dioxo-4-phenyl-4-propylimidazolidin-1-yl)-N-methylacetamide]
[7]; [14]
  % inhibition, p300/CBP: < 25%
[2]
  UPLC-MS buffer stability counter-screen: Grossly stable
[3]; [14]
  % inhibition, GCN5: < 25%
[4]
  Quenching counter-screen: Flagged (Significant fluorescence quenching was defined as signal reduction greater than 25% of the corresponding fluorophore signal at any test compound concentration)
[6]
  Absorption max (nm): Nominal
  Absorbance counter-screen: Negative

## Plumbagin [Compound 8]
[8]; @ 50 µM, 23 (Supplementary References)
  % inhibition, PCAF: ~ 50%
[2]
  UPLC-MS buffer stability counter-screen: Grossly stable
[4]
  Quenching counter-screen: Negative
[6]
  Absorption max (nm): 420 nm
  Absorbance counter-screen: Flagged (Significant absorbance was defined as molar absorptivity constants greater than 2000 M^−1 cm^−1 at wavelengths greater than 300 nm)
  Molar absorptivity: 3200 M⁻¹ cm⁻¹
